{"source": "ChEMBL document CHEMBL1134116", "about": "“Ethambutol analogues as potential antimycobacterial agents” (Bioorg Med Chem Lett, 2001)", "key": {"[1]": {"test_system": "Mycolicibacterium smegmatis", "experiment": "Antimycobacterial activity was evaluated against Mycobacterium smegmatis; Active", "format": "functional, organism-based"}, "[2]": {"test_system": "Mycolicibacterium smegmatis", "experiment": "Antimycobacterial activity was evaluated against Mycobacterium smegmatis; Inactive", "format": "functional, organism-based"}}, "note": "Activity calls are given as the source filed them. No cut-off for these calls is given here.", "data": [{"smiles": "CC(C)C[C@@H](CO)NCCN[C@@H](CO)CC(C)C", "values": [{"measurement": "Activity", "setting": "[1]", "result": "Active"}]}, {"smiles": "COC(=O)[C@H](CO)NCCN[C@@H](CO)C(=O)OC", "values": [{"measurement": "Activity", "setting": "[2]", "result": "inactive"}]}, {"smiles": "OC[C@H](Cc1ccccc1)NCCN[C@@H](CO)Cc1ccccc1", "values": [{"measurement": "Activity", "setting": "[1]", "result": "Active"}]}, {"smiles": "CC[C@@H](CO)NCCN[C@@H](CC)CO", "values": [{"measurement": "Activity", "setting": "[1]", "result": "Active"}]}, {"smiles": "O=C(O)CNCCNCC(=O)O", "values": [{"measurement": "Activity", "setting": "[2]", "result": "inactive"}]}, {"smiles": "OC[C@H]1N[C@@H](CSc2ccccc2)C(O)[C@H]1O", "note": "(stereo not given in full)", "values": [{"measurement": "Activity", "setting": "[1]", "result": "Active"}]}, {"smiles": "CC[C@@H](CO)NCCN1CCC[C@H]1CO", "values": [{"measurement": "Activity", "setting": "[1]", "result": "Active"}]}, {"smiles": "CC[C@@H](CO)NCCN[C@@H](C)CO", "values": [{"measurement": "Activity", "setting": "[1]", "result": "Active"}]}, {"smiles": "O=C(O)CN(CCN(CC(=O)O)CC(=O)O)CC(=O)O", "values": [{"measurement": "Activity", "setting": "[2]", "result": "inactive"}]}, {"smiles": "CC[C@@H](CO)NCCN[C@H](C)CO", "values": [{"measurement": "Activity", "setting": "[1]", "result": "Active"}]}, {"smiles": "OC[C@@H]1CCCN1CCN1CCC[C@H]1CO", "values": [{"measurement": "Activity", "setting": "[1]", "result": "Active"}]}, {"smiles": "OCCNCCNCCO", "values": [{"measurement": "Activity", "setting": "[1]", "result": "Active"}, {"measurement": "Activity", "setting": "[2]", "result": "inactive"}]}, {"smiles": "CC[C@H](CO)NCCN[C@@H](CC)CO", "values": [{"measurement": "Activity", "setting": "[1]", "result": "Active"}]}, {"smiles": "CC(C)[C@@H](CO)NCCN[C@H](CO)C(C)C", "values": [{"measurement": "Activity", "setting": "[1]", "result": "Active"}]}]}
